Data reported in PubChem BioAssay AID2060513 (Molecular Pharmacology Branch, DTP, NCI, 2025).

Test system: 299254-011-R-J1-PDC complex spheroids viability
Assay: Anticancer human tumor 299254-011-R-J1-PDC patient-derived melanoma cell line growth inhibition [GQUAD]
Conditions: for IC50: curve of first compound; for viability, T/C: stronger effect = lower value
Method in brief: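 Multi-cell-type spheroids of tumor cells with HUVEC and mesenchymal stem cells, treated with drug combinations. Concentrations descend in half-log steps from near clinical Cmax, or from 10 microM where Cmax is unknown; viability read-out.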

[1] = second compound 0.0316 µM, first compound 0.0316 µM
[2] = second compound 0.0316 µM, first compound 0.316 µM
[3] = second compound 0.1 µM, first compound 0.0316 µM
[4] = second compound 0.1 µM, first compound 0.316 µM
[5] = second compound 0.316 µM, first compound 0.0316 µM
[6] = second compound 0.316 µM, first compound 0.316 µM
[7] = second compound 1 µM, first compound 0.0316 µM
[8] = second compound 1 µM, first compound 0.316 µM
[9] = second compound 3.16 µM, first compound 0.0316 µM
[10] = second compound 3.16 µM, first compound 0.316 µM
[11] = second compound 10 µM, first compound 0.0316 µM
[12] = second compound 10 µM, first compound 0.316 µM
[13] = second compound 0.0316 µM, first compound 0.1 µM
[14] = second compound 0.0316 µM, first compound 1 µM
[15] = second compound 0.0316 µM, first compound 3.16 µM
[16] = second compound 0.0316 µM, first compound 10 µM
[17] = second compound 0.1 µM, first compound 0.1 µM
[18] = second compound 0.1 µM, first compound 1 µM
[19] = second compound 0.1 µM, first compound 3.16 µM
[20] = second compound 0.1 µM, first compound 10 µM
[21] = second compound 0.316 µM, first compound 0.1 µM
[22] = second compound 0.316 µM, first compound 1 µM
[23] = second compound 0.316 µM, first compound 3.16 µM
[24] = second compound 0.316 µM, first compound 10 µM
[25] = second compound 1 µM, first compound 0.1 µM
[26] = second compound 1 µM, first compound 1 µM
[27] = second compound 1 µM, first compound 3.16 µM
[28] = second compound 1 µM, first compound 10 µM
[29] = second compound 3.16 µM, first compound 0.1 µM
[30] = second compound 3.16 µM, first compound 1 µM
[31] = second compound 3.16 µM, first compound 3.16 µM
[32] = second compound 3.16 µM, first compound 10 µM
[33] = second compound 10 µM, first compound 0.1 µM
[34] = second compound 10 µM, first compound 1 µM
[35] = second compound 10 µM, first compound 3.16 µM
[36] = second compound 10 µM, first compound 10 µM
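Further: spheroids exposed to the agents for seven days before readout.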
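Wherever viability, T/C is given: percent viability relative to DMSO vehicle control wells = 100%.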

In the case of `CCc1c2c(nc3ccc(O)cc13)-c1cc3c(c(=O)n1C2)COC(=O)[C@]3(O)CC` + CN(C)c1ccc(Nc2c3ccc(NC(=O)CCN4CCCC4)cc3nc3cc(NC(=O)CCN4CCCC4)ccc23)cc1, the IC50 (second compound 0.0316 µM) is reported as greater than 0.316 µM, the IC50 (second compound 0.1 µM) is reported as greater than 0.316 µM and the IC50 (second compound 0.316 µM) is reported as greater than 0.316 µM. For the same molecule, the IC50 (second compound 1 µM) was greater than 0.316 µM, the IC50 (second compound 3.16 µM) was greater than 0.316 µM and the IC50 (second compound 10 µM) was greater than 0.316 µM. The viability, T/C (second compound 0.0316 µM, first compound 0.000999 µM) was 89.2%, the viability, T/C (second compound 0.0316 µM, first compound 0.00316 µM) was 110% and the viability, T/C (second compound 0.0316 µM, first compound 0.00999 µM) was 89.4%. The viability, T/C [1] was 94.9%, the viability, T/C (second compound 0.0316 µM, first compound 0.0999 µM) was 90.8% and the viability, T/C [2] was 98%. For the same molecule, the viability, T/C (second compound 0.1 µM, first compound 0.000999 µM) was 112%, the viability, T/C (second compound 0.1 µM, first compound 0.00316 µM) was 98.5% and the viability, T/C (second compound 0.1 µM, first compound 0.00999 µM) was 86.2%. The viability, T/C [3] was 80%, the viability, T/C (second compound 0.1 µM, first compound 0.0999 µM) was 85.1% and the viability, T/C [4] was 72%. For the same molecule, the viability, T/C (second compound 0.316 µM, first compound 0.000999 µM) was 113%, the viability, T/C (second compound 0.316 µM, first compound 0.00316 µM) was 113% and the viability, T/C (second compound 0.316 µM, first compound 0.00999 µM) was 71.4%. It also gave a viability, T/C [5] of 89.1%, a viability, T/C (second compound 0.316 µM, first compound 0.0999 µM) of 91.5% and a viability, T/C [6] of 78%. It also gave a viability, T/C (second compound 1 µM, first compound 0.000999 µM) of 105%, a viability, T/C (second compound 1 µM, first compound 0.00316 µM) of 115% and a viability, T/C (second compound 1 µM, first compound 0.00999 µM) of 91.6%. The viability, T/C [7] was 86.5%, the viability, T/C (second compound 1 µM, first compound 0.0999 µM) was 103% and the viability, T/C [8] was 86.4%. It also gave a viability, T/C (second compound 3.16 µM, first compound 0.000999 µM) of 117%, a viability, T/C (second compound 3.16 µM, first compound 0.00316 µM) of 112% and a viability, T/C (second compound 3.16 µM, first compound 0.00999 µM) of 76.1%. It also gave a viability, T/C [9] of 85%, a viability, T/C (second compound 3.16 µM, first compound 0.0999 µM) of 84.5% and a viability, T/C [10] of 94.5%. The viability, T/C (second compound 10 µM, first compound 0.000999 µM) was 103%, the viability, T/C (second compound 10 µM, first compound 0.00316 µM) was 129% and the viability, T/C (second compound 10 µM, first compound 0.00999 µM) was 92%. The viability, T/C [11] was 83.7%, the viability, T/C (second compound 10 µM, first compound 0.0999 µM) was 84.8% and the viability, T/C [12] was 100%.
`COc1cc(C2c3cc4c(cc3C(OC3OC5COC(C)OC5C(O)C3O)C3COC(=O)C23)OCO4)cc(OC)c1O` (stereo unspecified) + CN(C)c1ccc(Nc2c3ccc(NC(=O)CCN4CCCC4)cc3nc3cc(NC(=O)CCN4CCCC4)ccc23)cc1 was tested, and the IC50 (second compound 0.0316 µM) was greater than 10 µM, the IC50 (second compound 0.1 µM) was greater than 10 µM and the IC50 (second compound 0.316 µM) was greater than 10 µM. It also gave an IC50 (second compound 1 µM) greater than 10 µM, an IC50 (second compound 3.16 µM) greater than 10 µM and an IC50 (second compound 10 µM) greater than 10 µM. The viability, T/C [1] was 117%, the viability, T/C [13] was 102% and the viability, T/C [2] was 115%. For the same molecule, the viability, T/C [14] was 88.3%, the viability, T/C [15] was 79.4% and the viability, T/C [16] was 88.7%. It also gave a viability, T/C [3] of 116%, a viability, T/C [17] of 105% and a viability, T/C [4] of 92.1%. The viability, T/C [18] was 92.6%, the viability, T/C [19] was 101% and the viability, T/C [20] was 87.1%. It also gave a viability, T/C [5] of 104%, a viability, T/C [21] of 107% and a viability, T/C [6] of 93.6%. The viability, T/C [22] was 88.2%, the viability, T/C [23] was 87.2% and the viability, T/C [24] was 76.8%. It also gave a viability, T/C [7] of 105%, a viability, T/C [25] of 107% and a viability, T/C [8] of 123%. The viability, T/C [26] was 93.5%, the viability, T/C [27] was 87.2% and the viability, T/C [28] was 95.2%. It also gave a viability, T/C [9] of 102%, a viability, T/C [29] of 108% and a viability, T/C [10] of 118%. For the same molecule, the viability, T/C [30] was 81.2%, the viability, T/C [31] was 81.3% and the viability, T/C [32] was 81.3%. For the same molecule, the viability, T/C [11] was 89.2%, the viability, T/C [33] was 105% and the viability, T/C [12] was 101%. The viability, T/C [34] was 107%, the viability, T/C [35] was 98% and the viability, T/C [36] was 81.8%.
In the case of `COc1cccc2c1C(=O)c1c(O)c3c(c(O)c1C2=O)CC(O)(C(=O)CO)CC3OC1CC(N)C(O)C(C)O1` (stereo unspecified) + CN(C)c1ccc(Nc2c3ccc(NC(=O)CCN4CCCC4)cc3nc3cc(NC(=O)CCN4CCCC4)ccc23)cc1, the IC50 (second compound 0.0316 µM) is reported as 4.26 µM, the IC50 (second compound 0.1 µM) is reported as 5.65 µM and the IC50 (second compound 0.316 µM) is reported as 5.03 µM. It also gave an IC50 (second compound 1 µM) of 4.9 µM, an IC50 (second compound 3.16 µM) of 5.46 µM and an IC50 (second compound 10 µM) of 6.44 µM. For the same molecule, the viability, T/C [1] was 109%, the viability, T/C [13] was 103% and the viability, T/C [2] was 90.5%. It also gave a viability, T/C [14] of 72.5%, a viability, T/C [15] of 61.9% and a viability, T/C [16] of 28.8%. For the same molecule, the viability, T/C [3] was 93.1%, the viability, T/C [17] was 106% and the viability, T/C [4] was 94.6%. For the same molecule, the viability, T/C [18] was 79.8%, the viability, T/C [19] was 71% and the viability, T/C [20] was 31.5%. The viability, T/C [5] was 112%, the viability, T/C [21] was 110% and the viability, T/C [6] was 81%. It also gave a viability, T/C [22] of 87.1%, a viability, T/C [23] of 64.8% and a viability, T/C [24] of 30.7%. The viability, T/C [7] was 99.7%, the viability, T/C [25] was 96.3% and the viability, T/C [8] was 90.1%. The viability, T/C [26] was 89.5%, the viability, T/C [27] was 63.4% and the viability, T/C [28] was 27.3%. The viability, T/C [9] was 109%, the viability, T/C [29] was 107% and the viability, T/C [10] was 83.7%. For the same molecule, the viability, T/C [30] was 92.4%, the viability, T/C [31] was 72.4% and the viability, T/C [32] was 27.3%. It also gave a viability, T/C [11] of 91.8%, a viability, T/C [33] of 110% and a viability, T/C [12] of 87.6%. It also gave a viability, T/C [34] of 99.6%, a viability, T/C [35] of 75.9% and a viability, T/C [36] of 34%.
